This experiment relates to Lewis lung carcinoma i.m., BDF1 mice, T/C %. Briefly: NCI In Vivo Anticancer Drug Screen. Data for tumor model Lewis Lung Carcinoma (intramuscular) in B6D2F1 (BDF1) mice. A digest of the protocol: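 Compound given to mice with transplantable tumours; survival or tumour size compared against the vehicle control group, reported as T divided by C.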
The mark [1] stands for this setting: endpoint: mean tumor weight (est.), dose: 6.25 mg/kg/injection, schedule: Q01DX011 (ip), vehicle: saline with Tween-80, higher = larger tumour.
[2] abbreviates: endpoint: mean tumor weight (est.), dose: 12.5 mg/kg/injection, schedule: Q01DX011 (ip), vehicle: saline with Tween-80, higher = larger tumour.
Where [3] appears, read: endpoint: mean tumor weight (est.), dose: 25.0 mg/kg/injection, schedule: Q01DX011 (ip), vehicle: saline with Tween-80, higher = larger tumour.
Where [4] appears, read: endpoint: median survival time, dose: 6.25 mg/kg/injection, schedule: Q01DX011 (ip), vehicle: saline with Tween-80, higher = longer survival.
Where [5] appears, read: endpoint: median survival time, dose: 12.5 mg/kg/injection, schedule: Q01DX011 (ip), vehicle: saline with Tween-80, higher = longer survival.
Where [6] appears, read: endpoint: median survival time, dose: 25.0 mg/kg/injection, schedule: Q01DX011 (ip), vehicle: saline with Tween-80, higher = longer survival.
Where [7] appears, read: endpoint: median survival time, dose: 12.5 mg/kg/injection, schedule: Q01DX011 (ip), vehicle: saline, higher = longer survival.
[8] abbreviates: endpoint: median survival time, dose: 25.0 mg/kg/injection, schedule: Q01DX011 (ip), vehicle: saline, higher = longer survival.
Setting [9] is: endpoint: mean tumor weight (est.), dose: 0.25 mg/kg/injection, schedule: Q01DX011 (ip), vehicle: saline, higher = larger tumour.
Where [10] appears, read: endpoint: mean tumor weight (est.), dose: 0.5 mg/kg/injection, schedule: Q01DX011 (ip), vehicle: saline, higher = larger tumour.
[11] abbreviates: endpoint: median survival time, dose: 0.25 mg/kg/injection, schedule: Q01DX011 (ip), vehicle: saline, higher = longer survival.
Setting [12] is: endpoint: median survival time, dose: 0.5 mg/kg/injection, schedule: Q01DX011 (ip), vehicle: saline, higher = longer survival.

Values joined by “and” are separate entries in the source; they are usually repeats but may differ in a detail not shown here. Equal entries are not always repeated. Inconclusive results are not listed.

Take `N#C[C@@H]1C2C=CC(CC2)[C@H]1C#N`: the T/C (endpoint: mean tumor weight (est.), dose: 0.15 mg/kg/injection, schedule: Q01DX011 (ip), vehicle: saline, higher = larger tumour) is 56 % of control; the T/C (endpoint: mean tumor weight (est.), dose: 0.3 mg/kg/injection, schedule: Q01DX011 (ip), vehicle: saline, higher = larger tumour) was 83 % of control; the T/C (endpoint: mean tumor weight (est.), dose: 0.6 mg/kg/injection, schedule: Q01DX011 (ip), vehicle: saline, higher = larger tumour) was 98 % of control; the T/C (endpoint: mean tumor weight (est.), dose: 1.2 mg/kg/injection, schedule: Q01DX011 (ip), vehicle: saline, higher = larger tumour) was 95 % of control.
`CCCCN(C)C(=S)S[Te](SC(=S)N(C)CCCC)(SC(=S)N(C)CCCC)SC(=S)N(C)CCCC`: the T/C is, setting by setting: (endpoint: mean tumor weight (est.), dose: 100.0 mg/kg/injection, schedule: Q01DX011 (ip), vehicle: saline, higher = larger tumour) 59 % of control; (endpoint: mean tumor weight (est.), dose: 200.0 mg/kg/injection, schedule: Q01DX011 (ip), vehicle: saline, higher = larger tumour) 36 % of control; (endpoint: mean tumor weight (est.), dose: 400.0 mg/kg/injection, schedule: Q01DX011 (ip), vehicle: saline, higher = larger tumour) 17 % of control; (endpoint: median survival time, dose: 100.0 mg/kg/injection, schedule: Q01DX011 (ip), vehicle: saline, higher = longer survival) 114 % of control; (endpoint: median survival time, dose: 200.0 mg/kg/injection, schedule: Q01DX011 (ip), vehicle: saline, higher = longer survival) 110 % of control; (endpoint: median survival time, dose: 400.0 mg/kg/injection, schedule: Q01DX011 (ip), vehicle: saline, higher = longer survival) 121 % of control.
On to `Nc1cc(I)c2cccnc2c1O`, for which the T/C runs as follows: under setting [1], 87 % of control; under setting [2], 97 % of control; under setting [3], 87 % of control; under setting [4], 114 % of control; under setting [5], 108 % of control; under setting [6], 104 % of control.
Regarding `Cc1c(N)nc(C(CC(N)=O)NCC(N)C(N)=O)nc1C(=O)NC(C(=O)NC(C)C(O)C(C)C(=O)NC(C(=O)NCCc1nc(-c2nc(C(=O)NCCC[S+](C)C)cs2)cs1)C(C)O)C(OC1OC(CO)C(O)C(O)C1OC1OC(CO)C(O)C(OC(N)=O)C1O)c1cnc[nH]1` (stereo unspecified), the T/C runs as follows: (endpoint: median survival time, dose: 6.5 mg/kg/injection, schedule: Q01DX011 (ip), vehicle: saline, higher = longer survival) 152 % of control; (endpoint: median survival time, dose: 10.8 mg/kg/injection, schedule: Q01DX011 (ip), vehicle: saline, higher = longer survival) 168 % of control; (endpoint: median survival time, dose: 18.0 mg/kg/injection, schedule: Q01DX011 (ip), vehicle: saline, higher = longer survival) 166 % of control.
As for `C=C(C(=O)OC1CC2CCC(C1)N2C)c1ccccc1` (stereo unspecified), the T/C (endpoint: median survival time, dose: 7.5 mg/kg/injection, schedule: Q01DX011 (ip), vehicle: saline, higher = longer survival) was 119 % of control.
With `CCC[CH2][Sn](=[S])[CH2]CCC`, the T/C runs as follows: under setting [1], 103 % of control; under setting [2], 77 % of control; under setting [3], 55 % of control; under setting [4], 102 % of control; under setting [5], 116 % of control; under setting [6], 112 % of control.
As to `Cc1nc(N)c(C)c(C(=O)O)n1`, the T/C runs as follows: (endpoint: median survival time, dose: 4.0 mg/kg/injection, schedule: Q01DX009 (ip), vehicle: water, higher = longer survival) 110 % of control; (endpoint: median survival time, dose: 8.0 mg/kg/injection, schedule: Q01DX009 (ip), vehicle: water, higher = longer survival) 105 % of control; (endpoint: median survival time, dose: 64.0 mg/kg/injection, schedule: Q01DX009 (ip), vehicle: water, higher = longer survival) 92 % of control.
`OCC1OC(n2cnc3c(=S)nc[nH]c32)C(O)C1O` (stereo unspecified): the T/C runs as follows: (endpoint: mean tumor weight (est.), dose: 1.56 mg/kg/injection, schedule: Q01DX011 (ip), vehicle: other, higher = larger tumour) 100 % of control; (endpoint: mean tumor weight (est.), dose: 3.12 mg/kg/injection, schedule: Q01DX011 (ip), vehicle: other, higher = larger tumour) 78 % of control; (endpoint: mean tumor weight (est.), dose: 25.0 mg/kg/injection, schedule: Q01DX011 (ip), vehicle: other, higher = larger tumour) 96 % of control; (endpoint: median survival time, dose: 0.78 mg/kg/injection, schedule: Q01DX011 (ip), vehicle: other, higher = longer survival) 108 % of control; (endpoint: median survival time, dose: 1.56 mg/kg/injection, schedule: Q01DX011 (ip), vehicle: other, higher = longer survival) 114 % of control and 120 % of control; (endpoint: median survival time, dose: 3.12 mg/kg/injection, schedule: Q01DX011 (ip), vehicle: other, higher = longer survival) 95 % of control. Moreover, the T/C is, setting by setting: (endpoint: median survival time, dose: 6.25 mg/kg/injection, schedule: Q01DX011 (ip), vehicle: other, higher = longer survival) 110 % of control; (endpoint: median survival time, dose: 12.5 mg/kg/injection, schedule: Q01DX011 (ip), vehicle: other, higher = longer survival) 112 % of control.
As to `OC1CCCC2CCC[N-]C12.OC1CCCC2CCC[N-]C12.[O]=[V][OH]` (stereo unspecified), the T/C is 86 % of control (endpoint: mean tumor weight (est.), dose: 6.25 mg/kg/injection, schedule: Q01DX011 (ip), vehicle: saline, higher = larger tumour); 70 % of control (endpoint: mean tumor weight (est.), dose: 12.5 mg/kg/injection, schedule: Q01DX011 (ip), vehicle: saline, higher = larger tumour); 50 % of control (endpoint: mean tumor weight (est.), dose: 25.0 mg/kg/injection, schedule: Q01DX011 (ip), vehicle: saline, higher = larger tumour); 101 % of control (endpoint: median survival time, dose: 6.25 mg/kg/injection, schedule: Q01DX011 (ip), vehicle: saline, higher = longer survival); 107 % of control under setting [7]; 107 % of control under setting [8].
For the compound `CO[C@H](C(=O)[C@@H](O)[C@@H](C)O)[C@@H]1Cc2cc3cc(OC4CC(OC5CC(O)C(O)C(C)O5)C(O)C(C)O4)c(C)c(O)c3c(O)c2C(=O)[C@H]1OC1CC(OC2CC(OC3CC(C)(O)C(O)C(C)O3)C(O)C(C)O2)C(O)C(C)O1` (stereo partly specified), the T/C (endpoint: mean tumor weight, dose: 0.06 mg/kg/injection, schedule: Q01DX011 (ip), vehicle: water, higher = larger tumour) is 89 % of control; the T/C (endpoint: mean tumor weight, dose: 0.12 mg/kg/injection, schedule: Q01DX011 (ip), vehicle: water, higher = larger tumour) is 107 % of control; the T/C (endpoint: mean tumor weight, dose: 0.25 mg/kg/injection, schedule: Q01DX011 (ip), vehicle: water, higher = larger tumour) is 111 % of control; the T/C (endpoint: mean tumor weight, dose: 0.5 mg/kg/injection, schedule: Q01DX011 (ip), vehicle: water, higher = larger tumour) is 66 % of control; the T/C (endpoint: median survival time, dose: 0.12 mg/kg/injection, schedule: Q01DX011 (ip), vehicle: water, higher = longer survival) was 108 % of control and 114 % of control; the T/C (endpoint: median survival time, dose: 0.13 mg/kg/injection, schedule: Q01DX009 (ip), vehicle: water, higher = longer survival) was 94 % of control and 104 % of control. The T/C was 97 % of control and 101 % of control (endpoint: median survival time, dose: 0.25 mg/kg/injection, schedule: Q01DX009 (ip), vehicle: water, higher = longer survival); 92 % of control and 109 % of control (endpoint: median survival time, dose: 0.25 mg/kg/injection, schedule: Q01DX011 (ip), vehicle: water, higher = longer survival); 95 % of control and 108 % of control (endpoint: median survival time, dose: 0.5 mg/kg/injection, schedule: Q01DX009 (ip), vehicle: water, higher = longer survival); 103 % of control and 114 % of control (endpoint: median survival time, dose: 0.5 mg/kg/injection, schedule: Q01DX011 (ip), vehicle: water, higher = longer survival); 111 % of control (endpoint: median survival time, dose: 1.0 mg/kg/injection, schedule: Q01DX009 (ip), vehicle: water, higher = longer survival).
As to `C1CN1c1nc(N2CC2)nc(N2CC2)n1`, the T/C was 78 % of control (endpoint: mean tumor weight (est.), dose: 0.06 mg/kg/injection, schedule: Q01DX011 (ip), vehicle: saline, higher = larger tumour); 67 % of control (endpoint: mean tumor weight (est.), dose: 0.12 mg/kg/injection, schedule: Q01DX011 (ip), vehicle: saline, higher = larger tumour); 37 % of control under setting [9]; 37 % of control under setting [10]; 73 % of control (endpoint: mean tumor weight, dose: 0.12 mg/kg/injection, schedule: Q01DX011 (ip), vehicle: saline, higher = larger tumour); 73 % of control (endpoint: mean tumor weight, dose: 0.25 mg/kg/injection, schedule: Q01DX011 (ip), vehicle: saline, higher = larger tumour). Moreover, the T/C is, setting by setting: (endpoint: median survival time, dose: 0.06 mg/kg/injection, schedule: Q01DX011 (ip), vehicle: saline, higher = longer survival) 97 % of control; (endpoint: median survival time, dose: 0.1 mg/kg/injection, schedule: Q01DX011 (ip), vehicle: saline, higher = longer survival) 116 % of control; (endpoint: median survival time, dose: 0.12 mg/kg/injection, schedule: Q01DX011 (ip), vehicle: saline, higher = longer survival) 100 % of control and 106 % of control; (endpoint: median survival time, dose: 0.2 mg/kg/injection, schedule: Q01DX011 (ip), vehicle: saline, higher = longer survival) 106 % of control; under setting [11], 110 % of control; (endpoint: median survival time, dose: 0.4 mg/kg/injection, schedule: Q01DX011 (ip), vehicle: saline, higher = longer survival) 89 % of control. In addition, the T/C under setting [12] was 122 % of control.
`N=C(N)SCc1c2ccccc2c(CSC(=N)N)c2ccccc12`: the T/C (endpoint: mean tumor weight, dose: 12.5 mg/kg/injection, schedule: Q01DX011 (ip), vehicle: saline, higher = larger tumour) was 94 % of control; the T/C (endpoint: mean tumor weight, dose: 25.0 mg/kg/injection, schedule: Q01DX011 (ip), vehicle: saline, higher = larger tumour) was 84 % of control; the T/C (endpoint: mean tumor weight, dose: 50.0 mg/kg/injection, schedule: Q01DX011 (ip), vehicle: saline, higher = larger tumour) is 52 % of control; the T/C under setting [7] was 110 % of control; the T/C under setting [8] was 104 % of control.
Consider `COc1c2c([n+](C)c3c(OC)cccc13)OC(C(C)C)C2` (stereo unspecified), for which the T/C was 85 % of control under setting [9], 82 % of control under setting [10], 90 % of control under setting [11] and 101 % of control under setting [12].

For the origin of these results see PubChem BioAssay AID272 (DTP/NCI, 2004).
